Where two headings read alike, the source gives them in different places.

Data on 3 compounds can be found in paper PMC12559310, “Tumor-targeted top1 inhibitor delivery with optimized parp inhibition in advanced solid tumors: a phase i trial of gapped scheduling” (Nature Communications, 2025).

Data set [1] concerns patients with advanced solid tumors. Description: Phase I dose escalation (3 + 3 design): DLTs and MTD/RP2D of CRLX101 plus olaparib. The class given is in vivo, human. As to conditions: Olaparib 250 tab bid d3-13, 17-26 combined with CRLX101 12 mg/m2; % of single-agent MTD; Current study. An excerpt: Olaparib tablets were given at escalating doses across cohorts (as shown in Fig. 1), administered twice daily on days 3–13 and 17–26 of the treatment cycle.
A standard 3 + 3 design was used for dose escalation. […] DLTs were based on toxicities observed during the first cycle. […] Study treatment was discontinued if there was a > 3-week delay in reinstitution of treatment due to drug-related toxicity during a cycle. Dose reductions were allowed for toxicities. A maximum of two dose reductions were allowed. Dose re-escalation was not allowed.

Data set [2] is described as follows: Olaparib peak plasma concentration (2 h post-oral administration). The class given is in vivo, human. As for the experimental part: Approximately 4 mL of blood was collected into a sodium heparin tube (BD Biosciences), immediately processed into plasma before storage in cryovials at − 80 °C. […] Total CPT, polymer-unconjugated CPT, and olaparib plasma concentrations were measured using previously published assays[53],[54]. Polymer-conjugated CPT plasma concentrations were obtained via subtracting the polymer-unconjugated concentration from the total CPT concentration.
First dose pharmacokinetic parameters were calculated using noncompartmental methods (Phoenix WinNonlin 8.0, Certara Pharsight Corp, Cary, NC). Any plasma concentration measured below the LLOQ was excluded from analyses. The maximum plasma concentration (CMAX) and time to CMAX (TMAX) were recorded as observed values. The area under the plasma concentration vs time curve to the last observed time point (AUCLAST) was calculated using the Linear Up Log Down trapezoidal rule. The elimination rate (kEL) was calculated as the slope of the log-transformed concentrations vs terminal time points. AUC extrapolated to time infinity (AUCINF) was calculated as AUCLAST + CLAST/kEL, where CLAST is the concentration at the last observed time point. Half-life (t1/2) was calculated as ln2/kEL. Apparent oral clearance (CL/F) was calculated as dose/AUCINF; volume of distribution at steady-state (Vss) was calculated via the product of mean residence time extrapolated to infinity (MRTINF) and […]. Pharmacokinetic parameters were calculated for each individual and summarized using the arithmetic mean ± standard deviation (SD).

In a further data set the test system is SCLC cell lines. The arrangement: method as in protocol [5]. As to conditions: pre-clinical models of SCLC; ref protocol [5]; cited from earlier work.
For data set [3], the system named is CYP3A4. As to conditions: in vitro; cited from earlier work.
For data set [4], the system named is CYP3A4. Conditions: in vitro; cited from earlier work. This is another data set of the same source.
Another data set deals with CYP1A2. As to conditions: in vitro; cited from earlier work.
For another data set, the system named is CYP2B6. Conditions: in vitro; cited from earlier work.
For data set [5], the system named is CYP3A4. Conditions: in vitro; cited from earlier work. The source holds these as a separate data set.
The subject of a further data set is P-gp. Conditions: in vitro; cited from earlier work.
For another data set, the system named is OATP1B1. Conditions: in vitro; cited from earlier work.
The next data set concerns OCT1. Conditions: in vitro; cited from earlier work.
The next data set has as its system OCT2. Conditions: in vitro; cited from earlier work.
A further data set deals with OAT3. As to conditions: in vitro; cited from earlier work.
The test system of the next data set is MATE1. As to conditions: in vitro; cited from earlier work.
In another data set the test system is MATE2K. Conditions: in vitro; cited from earlier work.
The next data set deals with BRCP. As to conditions: in vitro; cited from earlier work.
The test system of a further data set is anaesthetized dog. The arrangement: method as in olaparib Investigator’s Brochure. As to conditions: at the doses studied, ref olaparib Investigator’s Brochure; cited from earlier work.
For another data set, the system named is rat. The arrangement: method as in olaparib Investigator’s Brochure. As to conditions: rat Irwin test, at the doses studied; ref olaparib Investigator’s Brochure; cited from earlier work.
The subject of a further data set is target organ of toxicity. Set-up: method as in olaparib Investigator’s Brochure. Conditions: toxicology studies; ref olaparib Investigator’s Brochure; cited from earlier work.
The test system of a further data set is patients. As to conditions: tablet BID; protocol rationale; cited from earlier work.
The test system of data set [6] is patients with solid tumors. As to conditions: Inv New Drugs, cited from earlier work.
The subject of the next data set is DNA damage. The arrangement: method as in earlier work. As to conditions: preclinical studies, transient, declining thereafter; cited from earlier work.
In data set [7] the test system is xenografts and patient-derived xenografts (PDXs). Set-up: method as in protocol [7]. As to conditions: animal models; ref protocol [7]; cited from earlier work.
Data set [8] has as its system platinum-sensitive SCLC relapse. The arrangement: method as in protocol [8]. As to conditions: preliminary data, ref protocol [8], cited from earlier work.

Take `O=C(c1cc(Cc2n[nH]c(=O)c3ccccc23)ccc1F)N1CCN(C(=O)C2CC2)CC1` [olaparib]: the “PARPi % of MTD” value in data set [1] is 83%; in data set [6] (Olaparib 50 mg bid d1-5 with Irinotecan 125 mg/m2 q2w, ref Chen, 2016) it was 12%; in data set [6] (Olaparib 50 mg qd d1-21 with Irinotecan 200 mg/m2 q3w, ref Chen, 2016), 6%; in [6] (Olaparib 100 mg bid d1-21 with Topotecan 1 mg/m2/d1-3, ref Samol, 2012), 25%. The “dose dependence of peak concentrations” value in [2] (100-300 mg, 2 hours post-dose) is reported as “increased proportionally with the dose”. Also, the CMAX in [2] (Olaparib dose 100 mg, N 2, 2 h post-dose, mean ± SD) turned out to be 2843.1 ± 947.62 ng/mL; in data set [2] (Olaparib dose 150 mg, N 5, 2 h post-dose, mean ± SD) it was 2359.8 ± 1548.0 ng/mL; in data set [2] (Olaparib dose 200 mg, N 3, 2 h post-dose, mean ± SD), 4496.7 ± 2375.2 ng/mL; in data set [2] (Olaparib dose 300 mg, N 6, 2 h post-dose, mean ± SD) it was 5594.6 ± 4132.4 ng/mL. Also, in data set [2] (human, plasma, oral, Olaparib dose 250 mg, N 7, 2 h post-dose, mean ± SD), the Cmax – broadly, the maximum level reached in the sampled fluid or tissue – at 2 h was 6340 ± 4870 ng/mL. Further, the single agent activity result in the data set on SCLC cell lines is reported as “striking single agent activity in a majority of SCLC cell lines tested”. In addition, in the data set with CYP3A4 [3], the CYP3A4 inhibition result is “inhibits CYP3A4 in vitro”. Further, the “principal enzyme forming the 3 main metabolites” value in the data set with CYP3A4 [4] is reported as “CYP3A4”. In addition, the CYP1A2 induction result in the data set with CYP1A2 is “Induction”. In addition, in the data set on CYP2B6, the CYP2B6 induction result is listed as “Induction”. Moreover, the CYP3A4 induction entry in the data set with CYP3A4 [5] is “Induction”. Besides, the P-gp inhibition result in the data set on P-gp is listed as “inhibitor”. In addition, the OATP1B1 inhibition entry with OATP1B1 is reported as “inhibitor”. Besides, the OCT1 inhibition entry in the data set with OCT1 is on record as “inhibitor”. Also, the OCT2 inhibition entry in the data set with OCT2 is “inhibitor”. Further, the OAT3 inhibition entry in the data set with OAT3 was “inhibitor”. For the same compound, the MATE1 inhibition entry with MATE1 is on record as “inhibitor”. The MATE2K inhibition result in the data set on MATE2K is recorded as “inhibitor”. In addition, in the data set on BRCP, the BRCP inhibition entry is reported as “weak inhibitor”. Besides, the “effects on cardiovascular or respiratory parameters” value in the data set on anaesthetized dog was “no noticeable”. Besides, the “behavioural, autonomic or motor effects” value with rat is recorded as “no noticeable”. Further, the “target organ of toxicity” value in the data set on target organ of toxicity was “bone marrow”. The “single-agent maximum tolerated dose (MTD)” value with patients is 300 mg.

In the case of `CC[C@@]1(O)C(=O)OCc2c1cc1n(c2=O)Cc2cc3ccccc3nc2-1` [camptothecin, 20(S)-camptothecin], the “time of peak of camptothecin-induced DNA damage” value with DNA damage was 24 to 48 h.

Take `Cn1ncnc1[C@H]1c2n[nH]c(=O)c3cc(F)cc(c23)N[C@@H]1c1ccc(F)cc1` [talazoparib]: in the data set with SCLC cell lines, the single agent activity entry is recorded as “striking single agent activity in a majority of SCLC cell lines tested”. Also, in [7], the “anti-tumor activity as a single agent” value was “comparable or superior to cisplatin”. Besides, in data set [8] (of 23 patients), the “RECIST confirmed partial responses, patients” value is listed as 2 and the “stable disease lasting more than 24 weeks, patients” value is 3. Also, the clinical benefit rate in data set [8] is 25%.
